Data published in ChEMBL document CHEMBL3045063, “Synthesis and cytostatic evaluation of some 2-(5-substituted-2-oxoindolin-3-ylidene)-N-substituted hydrazine carbothioamide” (Med Chem Res, 2011).
pIC50: −log10 of the molar value.

Columns and labels:
Type in all cases: functional, cell-based
MOLT-4 = test: Cytostatic activity against Homo sapiens (human) Molt4/C8 cells after 72 hr; conditions: MOLT-4, 72 h
CCRF-CEM = test: Cytostatic activity against Homo sapiens (human) CEM cells after 72 hr
L1210 = test: Cytostatic activity against Mus musculus (mouse) L1210 cells after 48 hr; conditions: L1210, 48 h

SMILES | pIC50 (MOLT-4) | pIC50 (CCRF-CEM) | pIC50 (L1210)
O=C1/C(=N\NC(=S)Nc2ccc(Cl)cc2)c2cc(Cl)ccc2N1Cc1ccc(F)cc1 | 4.32 | 4.30 | 3.99
Cc1ccc(CN2C(=O)/C(=N\NC(=S)Nc3ccc(Cl)cc3)c3cc(Cl)ccc32)cc1 | 5.24 | 4.74 | 5.01
Cc1ccc(CN2C(=O)/C(=N\NC(=S)Nc3ccc(C)cc3)c3cc(Br)ccc32)cc1 | 3.41 | ≤ 3.30 | ≤ 3.30
N[C@@H](Cc1ccc(N(CCCl)CCCl)cc1)C(=O)O [MELPHALAN] | 5.49 |  | 
Cc1ccc(NC(=S)N/N=C2\C(=O)N(Cc3ccc(Cl)cc3)c3ccc(Br)cc32)cc1 | 3.54 | ≤ 3.30 | ≤ 3.30
O=C1/C(=N\NC(=S)Nc2ccc(Cl)cc2)c2cc(Br)ccc2N1Cc1ccc(Cl)cc1 | 3.55 | 3.41 | ≤ 3.30
O=C1/C(=N\NC(=S)Nc2ccc(Cl)cc2)c2cc(F)ccc2N1Cc1ccc(F)cc1 | 4.33 | 4.25 | 3.81
Cc1ccc(NC(=S)N/N=C2\C(=O)N(Cc3ccc(F)cc3)c3ccc(F)cc32)cc1 | 5.82 | 5.60 | 5.21
O=C1/C(=N\NC(=S)Nc2ccc(Cl)cc2)c2cc(Cl)ccc2N1Cc1ccc(Cl)cc1 | 4.24 | 4.17 | 3.91
O=C1/C(=N\NC(=S)Nc2ccc(Cl)cc2)c2cc(Br)ccc2N1Cc1ccc(F)cc1 | 4.32 | 4.21 | 3.71
Cc1ccc(NC(=S)N/N=C2\C(=O)N(Cc3ccc(F)cc3)c3ccc(Br)cc32)cc1 | 4.24 | 3.88 | 3.72
Cc1ccc(CN2C(=O)/C(=N\NC(=S)Nc3ccc(Cl)cc3)c3cc(Br)ccc32)cc1 | 4.13 | 4.01 | 3.71

Next, values leading:

pIC50 (MOLT-4) | pIC50 (CCRF-CEM) | pIC50 (L1210) | SMILES
5.52 | 5.32 | 5.09 | Cc1ccc(NC(=S)N/N=C2\C(=O)Nc3ccc(F)cc32)cc1
4.37 | 4.32 | 4.16 | O=C1Nc2cc(Cl)c(F)cc2/C1=N/NC(=S)Nc1ccc(Cl)cc1
4.85 | 4.60 | 4.47 | O=C1Nc2ccc(F)cc2/C1=N/NC(=S)Nc1ccc(Cl)cc1
4.54 | 4.21 | 4.06 | O=C1Nc2ccc(Br)cc2/C1=N/NC(=S)Nc1ccc(Cl)cc1
5.31 | 5.17 | 5.02 | Cc1ccc(NC(=S)N/N=C2\C(=O)Nc3ccc(Br)cc32)cc1
3.95 | 3.88 | 3.78 | Cc1ccc(NC(=S)N/N=C2\C(=O)Nc3cc(Cl)c(F)cc32)cc1
4.19 | 4.21 | 3.97 | O=C1Nc2ccc(Cl)cc2/C1=N/NC(=S)Nc1ccc(Cl)cc1
